The values that follow come from ChEMBL document CHEMBL1201862, “PubChem BioAssay data set” (2004).

One assay has as its system Staphylococcus aureus. Put plainly: Inhibitors of Bacterial Quorum Sensing Structure Activity Relationship (SAR) Analysis: Dose Response Assay. [Related pubchem assays: 700, 527 ]. The class given is functional, organism-based.
A further assay has as its target NS3 (Hepatitis C virus, UniProt A3EZJ3). Put plainly: PubChem AID 2173. More on the design: species or system Hepacivirus hominis.
The target of the next assay is T1, fMet-Leu-Phe receptor (Homo sapiens, UniProt P21462).
T1 sequence (P21462 whole entry): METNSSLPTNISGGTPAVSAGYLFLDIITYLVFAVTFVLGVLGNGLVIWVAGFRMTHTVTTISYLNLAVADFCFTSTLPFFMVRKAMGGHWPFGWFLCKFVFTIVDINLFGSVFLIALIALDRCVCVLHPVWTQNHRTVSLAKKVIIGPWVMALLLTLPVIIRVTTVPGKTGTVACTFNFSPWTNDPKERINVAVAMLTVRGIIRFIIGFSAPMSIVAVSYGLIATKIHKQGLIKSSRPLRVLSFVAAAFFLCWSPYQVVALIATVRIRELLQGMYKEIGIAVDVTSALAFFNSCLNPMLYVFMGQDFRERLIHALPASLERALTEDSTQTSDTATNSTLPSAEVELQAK
Put plainly: FPR ligands, dose response (AID 519). It is filed as functional.

Another assay addresses T2, Bcl-2-like protein 10 (Homo sapiens, UniProt Q9HD36).
T2 sequence (Q9HD36 whole entry): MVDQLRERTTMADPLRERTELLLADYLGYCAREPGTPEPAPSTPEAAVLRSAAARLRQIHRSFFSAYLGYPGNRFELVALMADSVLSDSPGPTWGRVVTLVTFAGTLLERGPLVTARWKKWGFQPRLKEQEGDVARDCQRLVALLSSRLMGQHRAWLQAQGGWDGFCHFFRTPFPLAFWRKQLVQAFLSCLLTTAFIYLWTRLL
Description: Biochemical TR3 FP assay of Bcl-B inhibitor potency, EC50 (AID 1243). It is filed as functional.

Assay [1] in a line: A Cell Based Secondary Assay To Explore Cytotoxicity of Compounds that Sensitize Mycobacterium Tuberculosis to Beta-Lactam Antibiotics. It is filed as functional.
The target in assay [2] is Induced myeloid leukemia cell differentiation protein Mcl-1 (Homo sapiens, UniProt Q07820). It is filed as functional.
Another assay relates to HeLa. Put plainly: Cytotoxicity counterscreen assay for transcriptional activators of heat shock protein 70 (Hsp70). [Related pubchem assays: 1203, 1252 ]. The settings on record: Homo sapiens. The class given is functional. (The purpose of a counterscreen is to sort out artefacts and off-target activity.)

The source made the active and inactive calls.

Chain of Induced myeloid leukemia cell differentiation protein Mcl-1 (Q07820 whole entry): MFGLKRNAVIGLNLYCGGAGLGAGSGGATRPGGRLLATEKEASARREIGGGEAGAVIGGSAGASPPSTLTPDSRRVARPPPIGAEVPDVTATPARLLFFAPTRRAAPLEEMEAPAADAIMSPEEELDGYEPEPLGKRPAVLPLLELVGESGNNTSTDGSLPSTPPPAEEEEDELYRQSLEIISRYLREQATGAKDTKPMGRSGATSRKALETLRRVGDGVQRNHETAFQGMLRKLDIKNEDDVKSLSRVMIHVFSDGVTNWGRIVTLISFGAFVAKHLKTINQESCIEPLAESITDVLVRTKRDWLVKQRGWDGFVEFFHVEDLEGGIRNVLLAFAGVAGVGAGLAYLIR
Chain of NS3 (A3EZJ3 whole entry): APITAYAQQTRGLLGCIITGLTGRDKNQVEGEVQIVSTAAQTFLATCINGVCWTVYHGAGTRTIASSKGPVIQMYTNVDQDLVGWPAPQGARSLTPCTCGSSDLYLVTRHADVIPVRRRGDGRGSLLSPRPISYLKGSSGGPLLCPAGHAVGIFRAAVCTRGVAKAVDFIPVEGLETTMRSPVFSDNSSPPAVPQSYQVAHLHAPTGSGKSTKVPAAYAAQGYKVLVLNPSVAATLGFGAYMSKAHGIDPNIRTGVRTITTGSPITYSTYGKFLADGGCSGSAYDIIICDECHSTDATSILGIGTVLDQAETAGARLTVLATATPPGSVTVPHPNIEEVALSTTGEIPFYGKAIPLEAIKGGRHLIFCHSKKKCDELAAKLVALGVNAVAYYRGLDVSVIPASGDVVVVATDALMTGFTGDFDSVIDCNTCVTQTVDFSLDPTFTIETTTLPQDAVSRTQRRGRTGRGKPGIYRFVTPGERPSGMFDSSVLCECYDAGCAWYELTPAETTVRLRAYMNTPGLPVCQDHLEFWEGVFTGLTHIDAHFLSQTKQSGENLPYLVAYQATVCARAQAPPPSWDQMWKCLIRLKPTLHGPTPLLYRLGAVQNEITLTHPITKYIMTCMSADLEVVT

As usually defined, the IC50 is the concentration at which inhibition is half-maximal. As for `CCc1oc2ccccc2c1C(=O)c1ccc(O)cc1` [BENZARONE], the IC50 with Staphylococcus aureus is 1.29 µM (active).
Usually Ki stands for the dissociation constant of the complex between target and ligand, obtained from inhibition or displacement. Consider `CCOc1ccc(C(=O)C2=C(O)C(=O)N(c3nc(C)c(C)s3)C2c2ccco2)cc1` (configuration not stated), for which the IC50 at NS3 is 6.35 µM (active). Further, at fMet-Leu-Phe receptor, the Ki was 57.7 µM (inactive).
By EC50 is commonly meant the midpoint of the concentration-response curve. On to `COC(=O)C1=C(C)N(C)C(=O)NC1c1cc2c(cc1[N+](=O)[O-])OCO2` (configuration not stated), for which the EC50 on Bcl-2-like protein 10 was 17.4 µM (active).
The term CC50 denotes the concentration that lowers cell viability or growth by half. Take `O=C1/C(=C/c2ccncc2)CCc2ccccc21`: in assay [1], the CC50 was 35.4 µM (active).
As to `COC(=O)Nc1ccc(S(=O)(=O)NCc2ccccn2)cc1`, the IC50 in assay [2] is 6.18 µM (not active). Also, the 50% cytotoxic concentration (CC50) in the assay on HeLa is > 99 µM (not active).
